# Measured values published in ChEMBL document CHEMBL1146483, “Antitumor activity of bruceantin: an old drug with new promise” (J Nat Prod, 2004).
# Experiments:
# [1] = Cytotoxicity against concanavalin-stimulated human lymphocytes cells assessed as cell viability at 50 ng/mL after 4 days by trypan blue exclusion method; format: cell-based, Lymphocyte; details: read-out: Activity
# HL-60 [2] = assay: Induction of apoptosis in human HL60 cells after 24 hrs by DAPI staining; format: functional, cell-based; details: HL-60, 24 h
# U-266 = assay: Induction of apoptosis in human U266 cells after 24 hrs by DAPI staining; format: functional, cell-based; details: U-266, 24 h
# U-937 = assay: Cytotoxicity against human U937 cells by trypan blue exclusion method; format: functional, cell-based
# NCI-H929 = assay: Induction of apoptosis in human NCI-H929 cells after 24 hrs by DAPI staining; format: functional, cell-based; details: NCI-H929, 24 h
# RPMI-8226 [3] = assay: Induction of apoptosis in human RPMI8226 cells after 24 hrs by DAPI staining; format: functional, cell-based; details: RPMI-8226, 24 h
# BV-173 = assay: Cytotoxicity against human BV173 cells by trypan blue exclusion method; format: functional, cell-based
# Daudi = assay: Cytotoxicity against human Daudi cells by trypan blue exclusion method; format: functional, cell-based
# [4] = Cytotoxicity against human SUP-B13 cells by trypan blue exclusion method; format: functional, cell-based
# K562 = assay: Cytotoxicity against human K562 cells assessed as cell viability at 50 ng/mL after 4 days by trypan blue exclusion method; format: functional; details: K562, 96 h, read-out: Activity
# [5] = Cytotoxicity against human RS4:11 cells by trypan blue exclusion method; format: functional, cell-based
# HL-60 [6] = assay: Cytotoxicity against human HL60 cells by trypan blue exclusion method; format: functional, cell-based
# RPMI-8226 [7] = assay: Antitumor activity in human RPMI8226 cells xenografted in SCID mouse assessed as induction of apoptosis in peripheral proliferating areas at 5 to 12 mg mg/kg, ip administered every 3 days; format: functional
# REH = assay: Cytotoxicity against human REH cells by trypan blue exclusion method; format: functional, cell-based
# NB-4 = assay: Cytotoxicity against human NB4 cells by trypan blue exclusion method; format: functional, cell-based
# [8] = Cytotoxicity against human DHL6 cells by trypan blue exclusion method; format: functional, cell-based; details: SU-DHL-6
# Kasumi 1 = assay: Cytotoxicity against human Kasumi-1 cells by trypan blue exclusion method; format: functional, cell-based
smiles,measurement,setting,value
COC(=O)[C@@]12OC[C@]34[C@H]([C@@H](O)[C@@H]1O)[C@@]1(C)CC(=O)C(O)=C(C)[C@@H]1C[C@H]3OC(=O)[C@H](OC(=O)/C=C(\C)C(C)C)[C@@H]24 [BRUCEANTIN],"viability at 96 h, 50 ng/mL",[1],90%
same,IC50,HL-60 [2],12.2 nM
same,IC50,U-266,49 nM
same,IC50,U-937,< 0.015 µg/mL
same,IC50,NCI-H929,115 nM
same,IC50,RPMI-8226 [3],12.8 nM
same,IC50,BV-173,< 0.015 µg/mL
same,IC50,Daudi,< 0.015 µg/mL
same,IC50,[4],< 0.015 µg/mL
same,viability at 0.05 µg/mL,K562,90%
same,IC50,[5],< 0.015 µg/mL
same,IC50,HL-60 [6],0.02 µg/mL
same,Activity,RPMI-8226 [7],36.6%
same,IC50,REH,0.02 µg/mL
same,IC50,NB-4,< 0.015 µg/mL
same,IC50,[8],< 0.015 µg/mL
same,IC50,Kasumi 1,0.02 µg/mL
